The test system of data set [1] is Caco-2 cell line. To be noted: cited from earlier work.
Data set [2] has as its system rat intestinal tract tissue. To be noted: in vivo; cited from earlier work.
A short description of data set [3]: in vivo. Particulars: male, SD, rat, iv, 10 ug/kg.
Data set [4] can be described thus: in vivo. Particulars: male, SD, rat.
Data set [5] in a line: in vivo. Particulars: male, SD, rat. The source holds these as a separate data set.
A short description of data set [6]: in vivo. Particulars: male, rat.
Data set [7] is described as follows: in vivo. Particulars: male, SD, rat, sc, 10 ug/kg.
Data set [8] can be described thus: in vivo. To be noted: male, SD, rat, iv, 10 ug/kg. This is another data set of the same source.
Data set [9] is described as follows: in vivo. Particulars: male, SD, rat. This is another data set of the same source.
For data set [10] the following is noted: rat, in vivo.

Consider `CCCCCCCCCC(=O)O` [capric acid], for which the “cytotoxicity and tissue damage” value in data set [1] was “exhibits cytotoxicity and causes tissue damage”; in data set [2], “exhibits cytotoxicity and causes tissue damage”.

Broadly, the AUC is the area under the concentration-time curve, a measure of exposure. Read a high AUC as more exposure. As usually defined, the Cmax is the maximum level reached in the sampled fluid or tissue. By bioavailability is commonly meant dose-corrected exposure relative to a reference, in per cent. For the compound `CC[C@H](C)[C@H](NC(=O)[C@H](CCC(=O)O)NC(=O)[C@H](CO)NC(=O)[C@@H](NC(=O)[C@@H](N)CO)C(C)C)C(=O)N[C@@H](CCC(N)=O)C(=O)N[C@@H](CC(C)C)C(=O)N[C@@H](CCSC)C(=O)N[C@@H](Cc1cnc[nH]1)C(=O)N[C@@H](CC(N)=O)C(=O)N[C@@H](CC(C)C)C(=O)NCC(=O)N[C@@H](CCCCN)C(=O)N[C@@H](Cc1cnc[nH]1)C(=O)N[C@@H](CC(C)C)C(=O)N[C@@H](CC(N)=O)C(=O)N[C@@H](CO)C(=O)N[C@@H](CCSC)C(=O)N[C@@H](CCC(=O)O)C(=O)N[C@@H](CCCN=C(N)N)C(=O)N[C@H](C(=O)N[C@@H](CCC(=O)O)C(=O)N[C@@H](Cc1c[nH]c2ccccc12)C(=O)N[C@@H](CC(C)C)C(=O)N[C@@H](CCCN=C(N)N)C(=O)N[C@@H](CCCCN)C(=O)N[C@@H](CCCCN)C(=O)N[C@@H](CC(C)C)C(=O)N[C@@H](CCC(N)=O)C(=O)N[C@@H](CC(=O)O)C(=O)N[C@H](C(=O)N[C@@H](Cc1cnc[nH]1)C(=O)N[C@@H](CC(N)=O)C(=O)N[C@@H](Cc1ccccc1)C(=O)O)C(C)C)C(C)C` [hPTH(1-34)], the AUC in data set [3] was 3.48 ng·h/mL; in [4] (inhaled or intranasal), 0.732 ng·h/mL; in data set [5], 25.6 ng·h/mL; in data set [6] (Wister), 0.538 ng·h/mL; in data set [7] it was 0.827 ng·h/mL. Also, the Cmax in data set [3] came out at 31 ± 1.3 ng/mL; in data set [4] (inhaled or intranasal), 0.67 ± 0.16 ng/mL; in data set [5], 27.8 ± 15.9 ng/mL; in [6] (Wister), 0.93 ± 0.8 ng/mL; in [7] it was 1.07 ± 0.41 ng/mL. In addition, the bioavailability in [4] is 0.3 ± 0.1%; in data set [5] (iv), 14.6 ± 10.7%; in data set [6] (Wistar, iv) it was 0.4 ± 0.4%.

Regarding `CCCCCCCC(=O)OC[C@H](NC(=O)[C@H](CO)NC(=O)CN)C(=O)N[C@@H](Cc1ccccc1)C(=O)N[C@@H](CC(C)C)C(=O)N[C@@H](CO)C(=O)N1CCC[C@H]1C(=O)N[C@@H](CCC(=O)O)C(=O)N[C@@H](Cc1cnc[nH]1)C(=O)N[C@@H](CCC(N)=O)C(=O)N[C@@H](CCCNC(=N)N)C(=O)N[C@H](C(=O)N[C@@H](CCC(N)=O)C(=O)N[C@@H](CCC(N)=O)C(=O)N[C@@H](CCCNC(=N)N)C(=O)N[C@@H](CCCCN)C(=O)N[C@@H](CCC(=O)O)C(=O)N[C@@H](CO)C(=O)N[C@@H](CCCCN)C(=O)N[C@@H](CCCCN)C(=O)N1CCC[C@H]1C(=O)N1CCC[C@H]1C(=O)N[C@@H](C)C(=O)N[C@@H](CCCCN)C(=O)N[C@@H](CC(C)C)C(=O)N[C@@H](CCC(N)=O)C(=O)N1CCC[C@H]1C(=O)N[C@@H](CCCNC(=N)N)C(=O)O)C(C)C` [human ghrelin], in [8], the AUC was 3.43 ng·h/mL and the C0 came out at 40.7 ng/mL. For the same compound, in data set [9], the AUC is 0.533 ng·h/mL, the Cmax worked out at 2.25 ± 2 ng/mL and the bioavailability was determined as 1.6 ± 1.4%.

For `CC[C@H](C)[C@H](NC(=O)[C@@H]1CCCN1C(=O)[C@@H](NC(=O)[C@@H](N)Cc1ccccc1)C(C)C)C(=O)N[C@@H](Cc1ccccc1)C(=O)N[C@H](C(=O)N[C@@H](Cc1ccc(O)cc1)C(=O)NCC(=O)N[C@@H](CCC(=O)O)C(=O)N[C@@H](CC(C)C)C(=O)N[C@@H](CCC(N)=O)C(=O)N[C@@H](CCCNC(=N)N)C(=O)N[C@@H](CCSC)C(=O)N[C@@H](CCC(N)=O)C(=O)N[C@@H](CCC(=O)O)C(=O)N[C@@H](CCCCN)C(=O)N[C@@H](CCC(=O)O)C(=O)N[C@@H](CCCNC(=N)N)C(=O)N[C@@H](CC(N)=O)C(=O)N[C@@H](CCCCN)C(=O)NCC(=O)N[C@@H](CCC(N)=O)C(=O)O)[C@@H](C)O` [human motilin], in data set [10], the “BA of human motilin” value turned out to be 1.1 ± 0.7%.
